Source: patent US9206124B2, “Treatment of drug-resistant cancer with 2-aryl-2-(3-indolyl) acetohydroxamates” (New Mexico Technical Research Foundation, priority 2013, dated 2015)

System: U87 glioma cells
Assay: Redifferentiation of U87 cells to an astrocytic phenotype
Assay type: cell-based, human
Settings: GI50 concentration (7 μM, 33-day treatment, FIG. 5C)
Experimental: Although such redifferentiation processes are known, there are only a few small molecule agents reported to induce these epigenetic transformations.
U87 cells were plated at a density of 5×10^4 cells per well in 24-well plate in DMEM supplemented with 10% FBS. The following day, the cells in each well were re-fed with 1 mL of fresh DMEM/10% FBS, and treated with 3aafa to a final concentration between 15 and 5 μM. Cells were placed into the CO2 incubator and media was not replaced for the duration of the experiment.

O=C(NO)C(c1ccccc1)c1c(-c2ccc3ccccc3c2)[nH]c2ccccc12 (stereo not shown) [Compound 3aafa]
phenotypic morphological changes of U87 cells: ceased to replicate and appeared to undergo redifferentiation to a non-malignant state resembling an astrocytic phenotype
